Results on seven compounds are retold here after ChEMBL document CHEMBL3046810, “Total synthesis of cis-solamin and its inhibitory action with bovine heart mitochondrial complex I” (Tetrahedron, 2004).

Each structure is given as a SMILES string.

This experiment has as its target NADH-ubiquinone oxidoreductase chain 1 (Bos taurus, UniProt P03887). The experiment can be described thus: Inhibition of Bos taurus (bovine) mitochodrial complex 1 isolated from heart submitochondrial particle by NADH oxidase assay.

NADH-ubiquinone oxidoreductase chain 1, sequence (P03887 whole entry): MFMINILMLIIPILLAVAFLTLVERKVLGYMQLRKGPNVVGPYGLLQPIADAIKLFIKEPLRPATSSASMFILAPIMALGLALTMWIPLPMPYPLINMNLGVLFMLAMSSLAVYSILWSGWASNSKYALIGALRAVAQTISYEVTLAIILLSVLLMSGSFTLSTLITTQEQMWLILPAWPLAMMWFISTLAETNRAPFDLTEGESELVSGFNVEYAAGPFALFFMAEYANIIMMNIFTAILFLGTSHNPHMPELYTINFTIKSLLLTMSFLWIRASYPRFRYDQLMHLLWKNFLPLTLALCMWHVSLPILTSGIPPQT

As to `CCCCCCCCCCCC[C@H](O)[C@@H]1CC[C@H]([C@H](O)CCCCCCCCCCCCC2=C[C@H](C)OC2=O)O1` (stereo in doubt; 1a) [CIS-SOLAMIN], the IC50 was 2.2 nM.
As to `CCCCCCCCCCCC[C@H](O)[C@@H]1CC[C@H]([C@H](O)CCCCCCCCCCCCC2=C[C@H](C)OC2=O)O1` (stereo in doubt; 1b) [CIS-SOLAMIN], the IC50 amounted to 2.1 nM.
As for `CCCCCCCCCCCC[C@@H](O)[C@H]1CC[C@H]([C@H](O)CCCC[C@@H](O)CCCCCCCC2=C[C@H](C)OC2=O)O1` [(10S)-COROSSOLINE], the figure is 2 nM.
Compound `CCCCCCCCCCCC[C@H](O)[C@H]1CC[C@H]([C@H](O)CCCCCCCCCCCCCCC2=C[C@H](C)OC2=O)O1` [(17R,18R,21R,22S)-reticulation-1] registered an IC50 of 16 nM. This IC50 lies about 8-fold higher than the previous one.
On to `CCCCCCCCCCCC[C@@H](O)[C@H]1CC[C@H]([C@@H](O)CCCCCCCCCCCCCCC2=C[C@H](C)OC2=O)O1` [(17S, 18S, 21S, 22R)-reticulation-1], for which the 50% inhibitory concentration (IC50) was 17 nM.
Turning to `CCCCCCCCCC[C@H](O)[C@H]1CC[C@H]([C@H]2CC[C@H]([C@H](O)CCCCCCCCCC[C@@H](O)CC3=C[C@H](C)OC3=O)O2)O1` [BULLATACIN], the IC50 amounted to 0.8 nM. Compared with the last compound, the IC50 is about 21-fold lower.
For the compound `CCCCCCCCCCCC[C@@H](O)[C@H]1CC[C@H]([C@H](O)CCCC[C@H](O)CCCCCCCC2=C[C@H](C)OC2=O)O1` [COROSSOLINE], the IC50 stood at 1.5 nM. This IC50 is about 1.9-fold higher than that of the compound before.

The IC50 is the concentration needed to halve the response being measured.
